# Assays:
# Assay type in all cases: cell-based
# [1] = test system: K. pneumoniae KP 3; assay: Broth microdilution MIC (strain enzymes: SHV-1, TEM-1)
# [2] = test system: K. pneumoniae KI (KCl); assay: Broth microdilution MIC (strain enzymes: TEM-10)
# [3] = test system: panel of ESBL-producing Enterobacteriaceae (40 strains); assay: Broth microdilution MIC50/MIC90 summary over the panel
# [4] = test system: E. coli SI-M004; assay: Broth microdilution MIC (strain enzymes: SHV-2, GES-12)
# [5] = test system: K. pneumoniae 11/23 LF#2; assay: microbe, parasite or virus in culture
# [6] = test system: E. coli ESBL 4; assay: Broth microdilution MIC (strain enzymes: CTX-M15, TEM-1)
# [7] = test system: K. pneumoniae 304487; assay: Broth microdilution MIC (strain enzymes: SHV-12,TEM-1)
# [8] = test system: E. coli 25922; assay: Broth microdilution MIC (strain enzymes: None detected)
# [9] = test system: K. pneumoniae ESBL 7 #1; assay: Broth microdilution MIC (strain enzymes: SHV-12, TEM-1)
# [10] = test system: K. pneumoniae ESBL 8 #2; assay: as above
smiles,measurement,setting,value
"CCC(=O)N[C@H]1Cc2cccc(C(=O)O)c2OB1O [Compound 2, (R)-2-hydroxy-3-propionamido-3,4-dihydro-2H-benzo[e][1,2]oxaborinine-8-carboxylic acid]",MIC of ceftibuten (CTB),[1]; with inhibitor at 1 μg/mL,0.25 mg/L
same,MIC of cefalexin (LEX),[1]; with inhibitor at 2 μg/mL,0.25 mg/L
same,MIC of cefdinir (CDR),[1]; with inhibitor at 2 μg/mL,0.25 mg/L
same,MIC of cefixime (CFM),[1]; with inhibitor at 2 μg/mL,4 mg/L
same,MIC of ceftibuten (CTB),[1]; with inhibitor at 2 μg/mL,0.25 mg/L
same,MIC of cefalexin (LEX),[1]; with inhibitor at 4 μg/mL,0.5 mg/L
same,MIC of cefdinir (CDR),[1]; with inhibitor at 4 μg/mL,0.5 mg/L
same,MIC of cefixime (CFM),[1]; with inhibitor at 4 μg/mL,2 mg/L
same,MIC of ceftibuten (CTB),[1]; with inhibitor at 4 μg/mL,0.125 mg/L
same,MIC of cefalexin (LEX),[2]; with inhibitor at 1 μg/mL,0.125 mg/L
same,MIC of cefdinir (CDR),[2]; with inhibitor at 1 μg/mL,0.125 mg/L
same,MIC of cefixime (CFM),[2]; with inhibitor at 1 μg/mL,1 mg/L
same,MIC of ceftibuten (CTB),[2]; with inhibitor at 1 μg/mL,0.125 mg/L
same,MIC of cefalexin (LEX),[2]; with inhibitor at 2 μg/mL,0.125 mg/L
same,MIC of cefdinir (CDR),[2]; with inhibitor at 2 μg/mL,0.125 mg/L
same,MIC of cefixime (CFM),[2]; with inhibitor at 2 μg/mL,1 mg/L
same,MIC of ceftibuten (CTB),[2]; with inhibitor at 2 μg/mL,0.06 mg/L
same,MIC of cefalexin (LEX),[2]; with inhibitor at 4 μg/mL,0.125 mg/L
same,MIC of cefdinir (CDR),[2]; with inhibitor at 4 μg/mL,0.125 mg/L
same,MIC of cefixime (CFM),[2]; with inhibitor at 4 μg/mL,0.25 mg/L
same,MIC of ceftibuten (CTB),[2]; with inhibitor at 4 μg/mL,0.125 mg/L
same,Cefdinir MIC50,[3]; with inhibitor at 1 μg/mL,0.5 mg/L
same,Cefdinir MIC90,[3]; with inhibitor at 1 μg/mL,4 mg/L
same,Cefixime MIC50,[3]; with inhibitor at 1 μg/mL,1 mg/L
same,Cefixime MIC90,[3]; with inhibitor at 1 μg/mL,4 mg/L
same,Cefpodoxime MIC50,[3]; with inhibitor at 1 μg/mL,1 mg/L
same,Cefpodoxime MIC90,[3]; with inhibitor at 1 μg/mL,8 mg/L
same,Ceftibuten MIC50,[3]; with inhibitor at 1 μg/mL,0.125 mg/L
same,Ceftibuten MIC90,[3]; with inhibitor at 1 μg/mL,0.5 mg/L
same,Cephalexin MIC50,[3]; with inhibitor at 1 μg/mL,8 mg/L
same,Cephalexin MIC90,[3]; with inhibitor at 1 μg/mL,32 mg/L
same,Cefdinir MIC50,[3]; with inhibitor at 2 μg/mL,0.5 mg/L
same,Cefdinir MIC90,[3]; with inhibitor at 2 μg/mL,2 mg/L
same,Cefixime MIC50,[3]; with inhibitor at 2 μg/mL,0.5 mg/L
same,Cefixime MIC90,[3]; with inhibitor at 2 μg/mL,4 mg/L
same,Cefpodoxime MIC50,[3]; with inhibitor at 2 μg/mL,1 mg/L
same,Cefpodoxime MIC90,[3]; with inhibitor at 2 μg/mL,2 mg/L
same,Ceftibuten MIC50,[3]; with inhibitor at 2 μg/mL,0.125 mg/L
same,Ceftibuten MIC90,[3]; with inhibitor at 2 μg/mL,0.25 mg/L
same,Cephalexin MIC50,[3]; with inhibitor at 2 μg/mL,8 mg/L
same,Cephalexin MIC90,[3]; with inhibitor at 2 μg/mL,32 mg/L
same,Cefdinir MIC50,[3]; with inhibitor at 4 μg/mL,0.5 mg/L
same,Cefdinir MIC90,[3]; with inhibitor at 4 μg/mL,2 mg/L
same,Cefixime MIC50,[3]; with inhibitor at 4 μg/mL,0.25 mg/L
same,Cefixime MIC90,[3]; with inhibitor at 4 μg/mL,1 mg/L
same,Cefpodoxime MIC50,[3]; with inhibitor at 4 μg/mL,1 mg/L
same,Cefpodoxime MIC90,[3]; with inhibitor at 4 μg/mL,2 mg/L
same,Ceftibuten MIC50,[3]; with inhibitor at 4 μg/mL,0.125 mg/L
same,Ceftibuten MIC90,[3]; with inhibitor at 4 μg/mL,0.25 mg/L
same,Cephalexin MIC50,[3]; with inhibitor at 4 μg/mL,8 mg/L
same,Cephalexin MIC90,[3]; with inhibitor at 4 μg/mL,16 mg/L
same,MIC of cefalexin (LEX),[4]; with inhibitor at 1 μg/mL,0.5 mg/L
same,MIC of cefdinir (CDR),[4]; with inhibitor at 1 μg/mL,0.5 mg/L
same,MIC of cefixime (CFM),[4]; with inhibitor at 1 μg/mL,4 mg/L
same,MIC of ceftibuten (CTB),[4]; with inhibitor at 1 μg/mL,0.25 mg/L
same,MIC of cefalexin (LEX),[4]; with inhibitor at 2 μg/mL,0.5 mg/L
same,MIC of cefdinir (CDR),[4]; with inhibitor at 2 μg/mL,0.5 mg/L
same,MIC of cefixime (CFM),[4]; with inhibitor at 2 μg/mL,4 mg/L
same,MIC of ceftibuten (CTB),[4]; with inhibitor at 2 μg/mL,0.125 mg/L
same,MIC of cefalexin (LEX),[4]; with inhibitor at 4 μg/mL,0.5 mg/L
same,MIC of cefdinir (CDR),[4]; with inhibitor at 4 μg/mL,0.5 mg/L
same,MIC of cefixime (CFM),[4]; with inhibitor at 4 μg/mL,1 mg/L
same,MIC of ceftibuten (CTB),[4]; with inhibitor at 4 μg/mL,0.125 mg/L
same,MIC of cefalexin (LEX),[5]; with inhibitor at 1 μg/mL,0.25 mg/L
same,MIC of cefdinir (CDR),[5]; with inhibitor at 1 μg/mL,0.25 mg/L
same,MIC of cefixime (CFM),[5]; with inhibitor at 1 μg/mL,4 mg/L
same,MIC of ceftibuten (CTB),[5]; with inhibitor at 1 μg/mL,0.25 mg/L
same,MIC of cefalexin (LEX),[5]; with inhibitor at 2 μg/mL,0.5 mg/L
same,MIC of cefdinir (CDR),[5]; with inhibitor at 2 μg/mL,0.5 mg/L
same,MIC of cefixime (CFM),[5]; with inhibitor at 2 μg/mL,2 mg/L
same,MIC of ceftibuten (CTB),[5]; with inhibitor at 2 μg/mL,0.25 mg/L
same,MIC of cefalexin (LEX),[5]; with inhibitor at 4 μg/mL,0.25 mg/L
same,MIC of cefdinir (CDR),[5]; with inhibitor at 4 μg/mL,0.25 mg/L
same,MIC of cefixime (CFM),[5]; with inhibitor at 4 μg/mL,1 mg/L
same,MIC of ceftibuten (CTB),[5]; with inhibitor at 4 μg/mL,0.125 mg/L
same,MIC of cefalexin (LEX),[6]; with inhibitor at 1 μg/mL,2 mg/L
same,MIC of cefdinir (CDR),[6]; with inhibitor at 1 μg/mL,2 mg/L
same,MIC of cefixime (CFM),[6]; with inhibitor at 1 μg/mL,0.5 mg/L
same,MIC of ceftibuten (CTB),[6]; with inhibitor at 1 μg/mL,0.25 mg/L
same,MIC of cefalexin (LEX),[6]; with inhibitor at 2 μg/mL,1 mg/L
same,MIC of cefdinir (CDR),[6]; with inhibitor at 2 μg/mL,1 mg/L
same,MIC of cefixime (CFM),[6]; with inhibitor at 2 μg/mL,0.25 mg/L
same,MIC of ceftibuten (CTB),[6]; with inhibitor at 2 μg/mL,0.125 mg/L
same,MIC of cefalexin (LEX),[6]; with inhibitor at 4 μg/mL,0.5 mg/L
same,MIC of cefdinir (CDR),[6]; with inhibitor at 4 μg/mL,0.5 mg/L
same,MIC of cefixime (CFM),[6]; with inhibitor at 4 μg/mL,0.25 mg/L
same,MIC of ceftibuten (CTB),[6]; with inhibitor at 4 μg/mL,0.25 mg/L
same,MIC of cefalexin (LEX),[7]; with inhibitor at 1 μg/mL,1 mg/L
same,MIC of cefdinir (CDR),[7]; with inhibitor at 1 μg/mL,1 mg/L
same,MIC of cefixime (CFM),[7]; with inhibitor at 1 μg/mL,1 mg/L
same,MIC of ceftibuten (CTB),[7]; with inhibitor at 1 μg/mL,0.25 mg/L
same,MIC of cefalexin (LEX),[7]; with inhibitor at 2 μg/mL,1 mg/L
same,MIC of cefdinir (CDR),[7]; with inhibitor at 2 μg/mL,1 mg/L
same,MIC of cefixime (CFM),[7]; with inhibitor at 2 μg/mL,1 mg/L
same,MIC of ceftibuten (CTB),[7]; with inhibitor at 2 μg/mL,0.25 mg/L
same,MIC of cefalexin (LEX),[7]; with inhibitor at 4 μg/mL,2 mg/L
same,MIC of cefdinir (CDR),[7]; with inhibitor at 4 μg/mL,2 mg/L
same,MIC of cefixime (CFM),[7]; with inhibitor at 4 μg/mL,0.5 mg/L
same,MIC of ceftibuten (CTB),[7]; with inhibitor at 4 μg/mL,0.25 mg/L
same,MIC of cefalexin (LEX),[8]; with inhibitor at 1 μg/mL,0.125 mg/L
same,MIC of cefdinir (CDR),[8]; with inhibitor at 1 μg/mL,0.125 mg/L
same,MIC of cefixime (CFM),[8]; with inhibitor at 1 μg/mL,0.125 mg/L
same,MIC of ceftibuten (CTB),[8]; with inhibitor at 1 μg/mL,0.125 mg/L
same,MIC of cefalexin (LEX),[8]; with inhibitor at 2 μg/mL,0.125 mg/L
same,MIC of cefdinir (CDR),[8]; with inhibitor at 2 μg/mL,0.125 mg/L
same,MIC of cefixime (CFM),[8]; with inhibitor at 2 μg/mL,0.06 mg/L
same,MIC of ceftibuten (CTB),[8]; with inhibitor at 2 μg/mL,0.06 mg/L
same,MIC of cefalexin (LEX),[8]; with inhibitor at 4 μg/mL,0.125 mg/L
same,MIC of cefdinir (CDR),[8]; with inhibitor at 4 μg/mL,0.125 mg/L
same,MIC of cefixime (CFM),[8]; with inhibitor at 4 μg/mL,0.06 mg/L
same,MIC of ceftibuten (CTB),[8]; with inhibitor at 4 μg/mL,0.06 mg/L
same,MIC of cefalexin (LEX),[9]; with inhibitor at 1 μg/mL,0.5 mg/L
same,MIC of cefdinir (CDR),[9]; with inhibitor at 1 μg/mL,0.5 mg/L
same,MIC of cefixime (CFM),[9]; with inhibitor at 1 μg/mL,4 mg/L
same,MIC of ceftibuten (CTB),[9]; with inhibitor at 1 μg/mL,0.25 mg/L
same,MIC of cefalexin (LEX),[9]; with inhibitor at 2 μg/mL,1 mg/L
same,MIC of cefdinir (CDR),[9]; with inhibitor at 2 μg/mL,1 mg/L
same,MIC of cefixime (CFM),[9]; with inhibitor at 2 μg/mL,4 mg/L
same,MIC of ceftibuten (CTB),[9]; with inhibitor at 2 μg/mL,0.25 mg/L
same,MIC of cefalexin (LEX),[9]; with inhibitor at 4 μg/mL,0.5 mg/L
same,MIC of cefdinir (CDR),[9]; with inhibitor at 4 μg/mL,0.5 mg/L
same,MIC of cefixime (CFM),[9]; with inhibitor at 4 μg/mL,1 mg/L
same,MIC of ceftibuten (CTB),[9]; with inhibitor at 4 μg/mL,0.125 mg/L
same,MIC of cefalexin (LEX),[10]; with inhibitor at 1 μg/mL,0.5 mg/L
same,MIC of cefdinir (CDR),[10]; with inhibitor at 1 μg/mL,0.5 mg/L
same,MIC of cefixime (CFM),[10]; with inhibitor at 1 μg/mL,2 mg/L
same,MIC of ceftibuten (CTB),[10]; with inhibitor at 1 μg/mL,0.125 mg/L
same,MIC of cefalexin (LEX),[10]; with inhibitor at 2 μg/mL,0.25 mg/L
same,MIC of cefdinir (CDR),[10]; with inhibitor at 2 μg/mL,0.25 mg/L
same,MIC of cefixime (CFM),[10]; with inhibitor at 2 μg/mL,1 mg/L
same,MIC of ceftibuten (CTB),[10]; with inhibitor at 2 μg/mL,0.125 mg/L
same,MIC of cefalexin (LEX),[10]; with inhibitor at 4 μg/mL,0.25 mg/L
same,MIC of cefdinir (CDR),[10]; with inhibitor at 4 μg/mL,0.25 mg/L
same,MIC of cefixime (CFM),[10]; with inhibitor at 4 μg/mL,0.5 mg/L
same,MIC of ceftibuten (CTB),[10]; with inhibitor at 4 μg/mL,0.06 mg/L

# — US12544395B2, “Combination compositions comprising a beta-lactamase inhibitor and uses thereof” (priority 2018, dated 2026)
